From patent publication US20230167114A1, “MACROCYCLIC JAK INHIBITOR AND USE THEREOF” (Biopolar Hongye (Guangdong) Pharmaceutical Co., Ltd., priority 2020, published 2023) come the findings set out here.

Common to all, as to format: biochemical
In one test the target is JAK1 (Homo sapiens, UniProt P23458). In words: JAK kinase activity, homogeneous time-resolved fluorescence (JAK1 reaction system). The note with it: ATP 2 μM, JAK1 protein 0.2 ng/μL; read-out: JAK 1 activity. As for the experimental part:
(§1) The activity measurement method of JAK kinase was to use homogeneous time-resolved fluorescence technique. The reaction was performed in 384 shallow well plates with a total reaction volume of 10 μL. The mixture of kinase protein, compound, ATP and substrate was carried out in a reaction buffer of 50 mM Hepes (pH7.0), NaN3 0.02%, BSA 0.01%, 0.1 mM orthocanadate, 5 mM MgCl2, and 1 mM DTT. After reacting for 1 hour, antibody capable of recognizing substrate phosphorylation and dye XL-615 and detection buffer (Cisbio) containing EDTA were added to the system. The reaction signal of kinase was detected by PE company's porous plate detector. The parameter settings were excitation light at 320 nm, emission light at 615 nm and 665 nm. The activity of JAK is indirectly reflected by the signal ratio of 665 nm and 615 nm. In the reaction, the background well without enzyme and the total enzyme activity well without compound were set.
(§2) The IC50 value of the compound inhibiting protein was obtained by the formula: Y=100/(1+10^((Log IC50−X)*HillSlope)).
In JAK1 reaction system, the concentration of ATP was 2 μM, and the concentration of JAK1 protein was 0.2 ng/μL.

Another test has as its target JAK2 (Homo sapiens, UniProt O60674). In words: JAK kinase activity, homogeneous time-resolved fluorescence (JAK2 reaction system). The note with it: ATP 2 μM, JAK2 protein 0.01 ng/μL. Here is the method:
as §1, §2
In JAK2 reaction system, the concentration of ATP was 2 μM, and the concentration of JAK2 protein was 0.01 ng/μL.

A further test deals with T1, JAK3 (Homo sapiens, UniProt P52333).
T1 sequence (P52333 1-1124): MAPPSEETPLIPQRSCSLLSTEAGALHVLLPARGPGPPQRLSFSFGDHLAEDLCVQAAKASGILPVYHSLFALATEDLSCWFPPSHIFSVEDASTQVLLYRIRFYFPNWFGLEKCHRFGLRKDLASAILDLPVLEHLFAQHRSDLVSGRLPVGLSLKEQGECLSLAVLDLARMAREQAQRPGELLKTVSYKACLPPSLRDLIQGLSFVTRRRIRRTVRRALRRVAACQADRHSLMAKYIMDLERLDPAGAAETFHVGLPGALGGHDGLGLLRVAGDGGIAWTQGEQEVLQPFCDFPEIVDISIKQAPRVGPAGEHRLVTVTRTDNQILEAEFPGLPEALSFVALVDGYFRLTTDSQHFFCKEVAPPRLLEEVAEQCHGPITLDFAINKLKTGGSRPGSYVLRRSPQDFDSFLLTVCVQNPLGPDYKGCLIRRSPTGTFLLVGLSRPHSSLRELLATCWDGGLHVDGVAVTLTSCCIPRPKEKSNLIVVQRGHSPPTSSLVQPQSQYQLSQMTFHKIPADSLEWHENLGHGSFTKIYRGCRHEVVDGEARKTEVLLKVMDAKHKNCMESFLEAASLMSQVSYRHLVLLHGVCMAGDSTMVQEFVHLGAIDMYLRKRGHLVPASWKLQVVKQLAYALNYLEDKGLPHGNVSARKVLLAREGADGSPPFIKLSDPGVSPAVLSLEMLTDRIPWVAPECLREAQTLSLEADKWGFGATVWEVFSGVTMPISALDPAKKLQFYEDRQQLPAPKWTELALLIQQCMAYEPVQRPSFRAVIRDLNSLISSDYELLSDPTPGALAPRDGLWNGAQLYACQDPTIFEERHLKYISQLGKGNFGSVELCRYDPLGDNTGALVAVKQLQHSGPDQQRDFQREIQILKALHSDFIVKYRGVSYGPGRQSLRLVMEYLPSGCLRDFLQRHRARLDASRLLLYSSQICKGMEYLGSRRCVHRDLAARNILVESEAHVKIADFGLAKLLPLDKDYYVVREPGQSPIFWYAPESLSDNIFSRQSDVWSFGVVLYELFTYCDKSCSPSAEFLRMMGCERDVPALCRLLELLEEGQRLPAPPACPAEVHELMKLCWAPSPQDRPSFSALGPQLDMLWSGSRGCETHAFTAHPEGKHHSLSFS
As to the kind of experiment: JAK kinase activity, homogeneous time-resolved fluorescence (JAK3 reaction system). The note with it: ATP 2 μM, JAK3 protein 0.04 ng/μL; read-out: JAK 3 activity. Here is the method:
as §1, §2
In JAK3 reaction system, the concentration of ATP was 2 μM, and the concentration of JAK3 protein was 0.04 ng/μL.

A further test deals with TYK2 (Homo sapiens, UniProt P29597). As to the kind of experiment: JAK kinase activity, homogeneous time-resolved fluorescence (TYK2 reaction system). The following applies: ATP 2 μM, TYK2 protein 0.2 ng/μL; read-out: TYK 2 activity. As for the experimental part: as §1, §2
In TYK2 reaction system, the concentration of ATP was 2 μM and the concentration of TYK2 protein was 0.2 ng/μL.

Sequence of JAK2 (O60674 whole entry): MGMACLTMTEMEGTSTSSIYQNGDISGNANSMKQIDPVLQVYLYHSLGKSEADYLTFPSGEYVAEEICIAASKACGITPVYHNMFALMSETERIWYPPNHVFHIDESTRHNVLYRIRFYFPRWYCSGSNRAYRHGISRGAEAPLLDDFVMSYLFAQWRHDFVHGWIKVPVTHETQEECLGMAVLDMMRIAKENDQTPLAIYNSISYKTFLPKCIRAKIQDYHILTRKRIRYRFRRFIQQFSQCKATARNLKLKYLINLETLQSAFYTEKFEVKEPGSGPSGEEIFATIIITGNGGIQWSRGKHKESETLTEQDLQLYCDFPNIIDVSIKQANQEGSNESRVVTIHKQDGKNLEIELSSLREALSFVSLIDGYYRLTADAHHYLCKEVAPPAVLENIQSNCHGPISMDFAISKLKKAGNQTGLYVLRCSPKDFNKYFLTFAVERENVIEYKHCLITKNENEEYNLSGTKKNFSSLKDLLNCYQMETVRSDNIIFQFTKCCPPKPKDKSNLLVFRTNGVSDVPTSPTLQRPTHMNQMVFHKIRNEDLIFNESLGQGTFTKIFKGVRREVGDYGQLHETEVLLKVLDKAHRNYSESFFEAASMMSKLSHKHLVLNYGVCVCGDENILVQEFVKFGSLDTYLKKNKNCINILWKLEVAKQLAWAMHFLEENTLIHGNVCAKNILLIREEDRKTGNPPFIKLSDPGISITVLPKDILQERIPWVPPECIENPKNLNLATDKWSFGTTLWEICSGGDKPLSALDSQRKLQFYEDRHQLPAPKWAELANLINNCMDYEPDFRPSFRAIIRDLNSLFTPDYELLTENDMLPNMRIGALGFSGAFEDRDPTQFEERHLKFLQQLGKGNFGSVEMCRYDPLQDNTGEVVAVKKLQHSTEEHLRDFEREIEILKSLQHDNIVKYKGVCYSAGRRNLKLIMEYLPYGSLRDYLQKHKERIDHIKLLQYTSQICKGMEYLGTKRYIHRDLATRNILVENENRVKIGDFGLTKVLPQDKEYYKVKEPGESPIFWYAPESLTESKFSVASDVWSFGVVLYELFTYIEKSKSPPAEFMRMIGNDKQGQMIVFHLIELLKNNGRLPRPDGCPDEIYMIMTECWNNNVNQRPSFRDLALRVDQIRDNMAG
Sequence of TYK2 (P29597 whole entry): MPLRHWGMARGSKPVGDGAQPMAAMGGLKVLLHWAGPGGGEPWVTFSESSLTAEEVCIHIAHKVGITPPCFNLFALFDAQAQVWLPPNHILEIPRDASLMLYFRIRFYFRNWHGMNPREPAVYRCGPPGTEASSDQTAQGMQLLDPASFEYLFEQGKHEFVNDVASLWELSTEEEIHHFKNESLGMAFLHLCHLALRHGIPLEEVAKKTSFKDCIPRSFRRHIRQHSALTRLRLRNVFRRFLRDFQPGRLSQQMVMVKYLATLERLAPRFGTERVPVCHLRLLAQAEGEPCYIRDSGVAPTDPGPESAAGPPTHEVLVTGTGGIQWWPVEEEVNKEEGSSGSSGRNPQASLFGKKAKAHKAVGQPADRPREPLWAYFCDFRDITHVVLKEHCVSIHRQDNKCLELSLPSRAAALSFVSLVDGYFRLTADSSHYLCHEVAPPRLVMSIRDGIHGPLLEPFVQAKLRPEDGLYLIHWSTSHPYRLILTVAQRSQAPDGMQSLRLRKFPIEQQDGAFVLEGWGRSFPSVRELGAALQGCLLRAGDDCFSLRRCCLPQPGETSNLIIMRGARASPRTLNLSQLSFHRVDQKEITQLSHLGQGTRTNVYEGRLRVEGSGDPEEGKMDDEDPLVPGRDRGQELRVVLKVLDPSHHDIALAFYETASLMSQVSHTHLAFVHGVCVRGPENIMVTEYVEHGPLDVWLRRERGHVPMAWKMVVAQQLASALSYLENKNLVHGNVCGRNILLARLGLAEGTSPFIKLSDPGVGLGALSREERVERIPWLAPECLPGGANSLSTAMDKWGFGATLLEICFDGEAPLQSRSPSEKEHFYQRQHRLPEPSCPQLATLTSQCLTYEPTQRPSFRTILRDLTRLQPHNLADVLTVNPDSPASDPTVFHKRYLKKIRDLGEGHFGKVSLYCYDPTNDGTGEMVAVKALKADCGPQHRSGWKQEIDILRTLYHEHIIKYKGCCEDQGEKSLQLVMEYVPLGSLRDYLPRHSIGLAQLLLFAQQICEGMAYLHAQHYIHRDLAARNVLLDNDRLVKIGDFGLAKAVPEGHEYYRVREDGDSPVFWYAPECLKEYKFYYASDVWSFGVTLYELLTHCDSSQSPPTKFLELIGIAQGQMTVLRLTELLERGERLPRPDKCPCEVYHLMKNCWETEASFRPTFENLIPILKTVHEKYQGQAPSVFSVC
Sequence of JAK1 (P23458 whole entry): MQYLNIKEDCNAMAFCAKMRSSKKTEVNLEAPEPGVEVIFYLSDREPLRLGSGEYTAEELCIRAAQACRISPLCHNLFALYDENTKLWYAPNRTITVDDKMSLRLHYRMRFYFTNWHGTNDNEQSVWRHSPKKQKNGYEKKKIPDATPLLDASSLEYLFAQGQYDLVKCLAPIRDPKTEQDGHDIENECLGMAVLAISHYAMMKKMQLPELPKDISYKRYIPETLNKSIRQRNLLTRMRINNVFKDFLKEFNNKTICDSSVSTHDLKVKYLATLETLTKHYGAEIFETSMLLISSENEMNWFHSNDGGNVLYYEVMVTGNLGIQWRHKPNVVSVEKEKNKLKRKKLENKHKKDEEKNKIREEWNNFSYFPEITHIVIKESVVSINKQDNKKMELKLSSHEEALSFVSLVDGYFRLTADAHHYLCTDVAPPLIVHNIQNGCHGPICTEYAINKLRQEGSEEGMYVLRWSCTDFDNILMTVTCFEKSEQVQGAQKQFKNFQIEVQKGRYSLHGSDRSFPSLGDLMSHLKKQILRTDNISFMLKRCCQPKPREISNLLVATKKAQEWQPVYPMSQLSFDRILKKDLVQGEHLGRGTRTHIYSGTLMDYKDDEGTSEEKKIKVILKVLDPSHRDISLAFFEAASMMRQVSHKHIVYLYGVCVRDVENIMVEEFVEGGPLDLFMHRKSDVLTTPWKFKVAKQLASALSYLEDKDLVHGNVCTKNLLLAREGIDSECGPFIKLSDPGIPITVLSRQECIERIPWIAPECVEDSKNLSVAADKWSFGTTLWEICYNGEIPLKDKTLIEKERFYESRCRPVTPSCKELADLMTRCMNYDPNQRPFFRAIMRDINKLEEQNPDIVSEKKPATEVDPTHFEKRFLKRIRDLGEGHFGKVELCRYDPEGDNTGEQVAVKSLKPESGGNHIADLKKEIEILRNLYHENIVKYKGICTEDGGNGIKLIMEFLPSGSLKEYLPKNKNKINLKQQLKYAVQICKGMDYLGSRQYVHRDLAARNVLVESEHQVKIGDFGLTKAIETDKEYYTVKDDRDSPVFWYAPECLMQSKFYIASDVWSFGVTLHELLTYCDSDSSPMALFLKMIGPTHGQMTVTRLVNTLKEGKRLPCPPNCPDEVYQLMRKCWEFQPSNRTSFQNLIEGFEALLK

Regarding `Cc1cnc2nc1NCCCCCNC(=O)c1ccc(cc1)-c1cnc(F)c(c1)N2` [Compound 1, 2^6-fluoro-4^5-methyl-3,5,11-triaza-4 (2,4)-pyrimidina-2(3,5)-pyridina-1(1,4)-benzenacyclododecaphan-12-one], the IC50 on JAK1 was 101 to 1000 nM; against JAK2, 1000 to 10000 nM; on JAK3, 1000 to 10000 nM; at TYK2, greater than 10000 nM.

In the case of `Cc1cnc2nc1NCCCCCCC(=O)N1CCN(CC1)c1cnc(F)c(c1)N2` [Compound 2, 2^6-fluoro-4^5-methyl-3,5-diaza-4(2,4)-pyrimidina-1(1,4)-piperazina-2(3,5)-pyridinacyclododecaphan-12-one], the IC50 fell in the range of 101 to 1000 nM at JAK1, 101 to 1000 nM on JAK2, 1000 to 10000 nM on JAK3 and 1000 to 10000 nM on TYK2.

As for `Cc1cnc2nc1NCCCCCNC(=O)c1ccc(c(F)c1)-c1cnc(F)c(c1)N2` [Compound 3, 1^2,2^6-difluoro-4^5-methyl-3,5,11-triaza-4(2,4)-pyrimidina-2(3,5)-pyridina-1(1,4)-benzenacyclododecaphan-12-one], the IC50 is 11 to 100 nM at JAK1, 11 to 100 nM against JAK2, 101 to 1000 nM at JAK3 and 1000 to 10000 nM at TYK2.

Turning to `O=C1NCCCCCNc2nc(ncc2F)Nc2cc(cnc2F)-c2ccc1cc2` [Compound 4, 2^6,4^5-difluoro-3,5,11-triaza-4(2,4)-pyrimidina-2(3,5)-pyridina-1(1,4)-benzenacyclododecaphan-12-one], the IC50 is 1000 to 10000 nM at JAK1, 101 to 1000 nM on JAK2, 1000 to 10000 nM on JAK3 and greater than 10000 nM on TYK2.

Take `COc1cnc2nc1NCCCCCNC(=O)c1ccc(cc1)-c1cnc(F)c(c1)N2` [Compound 5, 2^6-fluoro-4^5-methoxy-3,5,11-triaza-4(2,4)-pyrimidina-2(3,5)-pyridina-1(1,4)-benzenacyclododecaphan-12-one]: the IC50 is 1000 to 10000 nM on JAK1, 1000 to 10000 nM at JAK2, 1000 to 10000 nM at JAK3 and greater than 10000 nM on TYK2.

In the case of `Cc1cnc2nc1NCCCCCNC(=O)c1ccc(cc1F)-c1cnc(F)c(c1)N2` [Compound 6, 1^3,2^6-difluoro-4^5-methyl-3,5,11-triaza-4(2,4)-pyrimidina-2(3,5)-pyridina-1(1,4)-benzenacyclododecaphan-12-one], the IC50 at JAK1 was in the range of 11 to 100 nM; against JAK2 it was 101 to 1000 nM; at JAK3 it was 101 to 1000 nM; at TYK2, 1000 to 10000 nM.

In the case of `Cc1cnc2nc1NCCCCNC(=O)c1ccc(cc1F)-c1cnc(F)c(c1)N2` [Compound 7, 1^2,2^6-difluoro-4^5-methyl-3,5,10-triaza-4(2,4)-pyrimidina-2(3,5)-pyridina-1(1,4)-benzenacycloundecaphan-11-one], the IC50 on JAK1 fell in the range of 11 to 100 nM; on JAK2, 101 to 1000 nM; at JAK3, 1000 to 10000 nM; at TYK2 it was 1000 to 10000 nM.

As for `COc1cc2ccc1C(=O)NCCCCCNc1nc(ncc1C)Nc1cc-2cnc1F` [Compound 8, 2^6-fluoro-1^3-methoxy-4^5-methyl-3,5,11-triaza-4(2,4)-pyrimidina-2(3,5)-pyridina-1(1,4)-benzenacyclododecaphan-12-one], the IC50 at JAK1 was 101 to 1000 nM; at JAK2, 1000 to 10000 nM; at JAK3 it was 1000 to 10000 nM; on TYK2, greater than 10000 nM.

Consider `Cc1cnc2nc1NCCCCCNC(=O)c1ccc(cc1N)-c1cnc(F)c(c1)N2` [Compound 9, 1^3-amino-2^6-difluoro-4^5-methyl-3,5,11-triaza-4(2,4)-pyrimidina-2(3,5)-pyridina-1(1,4)-benzenacyclododecaphan-12-one], for which the IC50 on JAK1 was in the range of 101 to 1000 nM; on JAK2, 101 to 1000 nM; on JAK3, 1000 to 10000 nM; on TYK2, 1000 to 10000 nM.

For `Cc1cnc2nc1NCCCCCNC(=O)c1ccc(cc1[N+](=O)[O-])-c1cnc(F)c(c1)N2` [Compound 10, 2^6-fluoro-4^5-methyl-1^3-nitro-3,5,11-triaza-4(2,4)-pyrimidina-2(3,5)-pyridina-1(1,4)-benzenacydododecaphan-12-one], the IC50 lay within 11 to 100 nM at JAK1, 101 to 1000 nM on JAK2, 1000 to 10000 nM at JAK3 and 1000 to 10000 nM on TYK2.

As for `Cc1cc2ccc1C(=O)NCCCCCNc1nc(ncc1C)Nc1cc-2cnc1F` [Compound 11, 2^6-fluoro-l^3,4^5-dimethyl-3,5,11-triaza-4(2,4)-pyrimidina-2(3,5)-pyridina-1(1,4)-benzenacyclododecaphan-12-one], the IC50 fell in the range of 101 to 1000 nM on JAK1, 101 to 1000 nM against JAK2, 1000 to 10000 nM on JAK3 and 1000 to 10000 nM at TYK2.

Take `Cc1cnc2nc1NCCCCCCCNC(=O)c1ccc(cc1F)-c1cnc(F)c(c1)N2` [Compound 12, I^3,2^6-difluoro-4^5-methyl-3,5,13-triaza-4(2,4)-pyrimidina-2(3,5)-pyridina-1(1,4)-benzenacydododecaphan-12-one]: the IC50 on JAK1 lay in the range of 101 to 1000 nM; on JAK2, 101 to 1000 nM; on JAK3, 1000 to 10000 nM; at TYK2, 1000 to 10000 nM.

Turning to `Cc1cnc2nc1NCCCCCCNC(=O)c1ccc(cc1F)-c1cnc(F)c(c1)N2` [Compound 13, I^3,2^6-difluoro-4^5-methyl-3,5,12-triaza-4(2,4)-pyrimidina-2(3,5)-pyridina-1(1,4)-benzenacyclotridecaphan-13-one], the IC50 on JAK1 was 101 to 1000 nM; against JAK2, 101 to 1000 nM; at JAK3, 1000 to 10000 nM; at TYK2, greater than 10000 nM.

As to `Cc1cnc2nc1NCCCCCNC(=O)c1ccc(cc1Cl)-c1cnc(F)c(c1)N2` [Compound 14, 1^3-chloro-2^6-fluoro-4^5-methyl-3,5,11-triaza-4(2,4)-pyrimidina-2(3,5)-pyridina-1(1,4)-benzenacyclododecaphan-12-one], the IC50 was 101 to 1000 nM on JAK1, 101 to 1000 nM on JAK2, 1000 to 10000 nM at JAK3 and 1000 to 10000 nM at TYK2.

For the compound `Cc1cnc2nc1Nc1cccc(c1)COCCCC(=O)N1CCN(CC1)c1cnc(F)c(c1)N2` [Compound 15, 2^6-fluoro-4^5-methyl-8-oxa-3,5-diaza-4(2,4)-pyrimidina-1(1,4)-piperazina-2(3,5)-pyridina-6(1,3)-benzenacyclododecaphan-12-one], the IC50 is 11 to 100 nM at JAK1, 101 to 1000 nM on JAK2, 101 to 1000 nM on JAK3 and 1000 to 10000 nM at TYK2.

With `O=C1NCCOCc2cccc(c2)Nc2nc(ncc2F)Nc2cc(cnc2F)-c2ccc1cc2` [Compound 16, 2^6,4^5-difluoro-oxa-3,5,11-triaza-4(2,4)-pyrimidina-2(3,5)-pyridina-1(1,4),6(1,3)-dibenzenacyclododecaphan-12-one], the IC50 at JAK1 was in the range of 11 to 100 nM; on JAK2, 11 to 100 nM; at JAK3, 11 to 100 nM; on TYK2, 1000 to 10000 nM.
